These results are taken from ChEMBL document CHEMBL4368904 (J Med Chem, 2019).

For orientation: Ki means the equilibrium dissociation constant of an inhibitor or competing ligand from its target. High values mean weaker binding, low ones tighter binding. The term Emax denotes the greatest response seen or fitted, relative to the assay's reference. Usually inhibition stands for how much of the control response was suppressed.

SMILES strings stand for the structures. Calls of active or inactive are those of the source. No cut-off for these calls is given here.

The target of data set [1] is T1, 5-hydroxytryptamine receptor 2C (Homo sapiens, UniProt P28335).
T1 sequence (P28335 whole entry): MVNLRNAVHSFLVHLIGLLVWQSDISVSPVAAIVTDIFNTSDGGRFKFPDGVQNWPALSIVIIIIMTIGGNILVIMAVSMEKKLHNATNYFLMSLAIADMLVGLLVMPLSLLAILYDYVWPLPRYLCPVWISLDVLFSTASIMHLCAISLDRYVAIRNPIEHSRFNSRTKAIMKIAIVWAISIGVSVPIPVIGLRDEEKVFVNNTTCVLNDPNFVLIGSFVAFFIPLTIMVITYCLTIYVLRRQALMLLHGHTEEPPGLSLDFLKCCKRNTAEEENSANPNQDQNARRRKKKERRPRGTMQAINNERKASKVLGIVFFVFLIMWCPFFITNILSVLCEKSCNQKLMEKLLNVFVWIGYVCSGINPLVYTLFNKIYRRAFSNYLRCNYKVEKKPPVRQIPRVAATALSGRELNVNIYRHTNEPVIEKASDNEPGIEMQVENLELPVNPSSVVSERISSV
In words: Inhibition of 5HT2C (unknown origin).

Data set [2] concerns the target T2, Adenosine receptor A3 (Homo sapiens, UniProt P0DMS8).
T2 sequence (P0DMS8 whole entry): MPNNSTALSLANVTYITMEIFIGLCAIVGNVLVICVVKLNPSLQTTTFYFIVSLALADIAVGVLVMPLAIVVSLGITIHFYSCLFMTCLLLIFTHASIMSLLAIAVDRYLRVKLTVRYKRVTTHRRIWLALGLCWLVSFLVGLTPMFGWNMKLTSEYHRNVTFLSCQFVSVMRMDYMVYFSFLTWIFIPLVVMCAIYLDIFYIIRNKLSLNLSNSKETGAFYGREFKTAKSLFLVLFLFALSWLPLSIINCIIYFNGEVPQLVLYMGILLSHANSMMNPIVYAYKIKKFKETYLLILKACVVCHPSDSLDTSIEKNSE
In words: Displacement of [125I]N6-(4-amino-3-iodobenzyl)adenosine-5-N-methyluronamide from human A3A adenosine receptor expressed in CHO cell membranes after 60 mins by scintillation proximity assay. (In a radioligand displacement assay an active substance lowers the binding of a labelled ligand.)

For data set [3], the target named is Sigma non-opioid intracellular receptor 1 (Homo sapiens, UniProt Q99720). In words: Inhibition of sigma receptor 1 (unknown origin).
Chain of Sigma non-opioid intracellular receptor 1 (Q99720 whole entry): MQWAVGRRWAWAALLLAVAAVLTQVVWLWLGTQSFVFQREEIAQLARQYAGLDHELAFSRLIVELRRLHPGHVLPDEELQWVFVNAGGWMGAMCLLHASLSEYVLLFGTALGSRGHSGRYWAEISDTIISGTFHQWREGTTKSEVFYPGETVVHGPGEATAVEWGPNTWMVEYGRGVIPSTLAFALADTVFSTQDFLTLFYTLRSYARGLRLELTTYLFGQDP
Data set [4] deals with T3, Adenosine receptor A1 (Homo sapiens, UniProt P30542).
T3 sequence (P30542 whole entry): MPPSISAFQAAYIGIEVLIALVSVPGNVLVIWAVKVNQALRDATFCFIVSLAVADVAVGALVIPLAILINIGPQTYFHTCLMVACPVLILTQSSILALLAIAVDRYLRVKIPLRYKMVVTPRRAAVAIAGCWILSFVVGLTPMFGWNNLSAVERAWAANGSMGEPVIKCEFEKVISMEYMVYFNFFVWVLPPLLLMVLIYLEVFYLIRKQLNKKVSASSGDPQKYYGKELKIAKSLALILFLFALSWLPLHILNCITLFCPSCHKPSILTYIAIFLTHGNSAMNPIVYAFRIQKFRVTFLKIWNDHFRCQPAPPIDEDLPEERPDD
In words: Displacement of [3H]N6-R-phenylisopropyladenosine from human A1A adenosine receptor expressed in CHO cell membranes after 60 mins by scintillation proximity assay.

Data set [5] concerns the target Sigma intracellular receptor 2 (Homo sapiens, UniProt Q5BJF2). In words: Inhibition of sigma receptor 2 (unknown origin).
Another data set deals with Adenosine receptor A2a (Homo sapiens, UniProt P29274). In words: Displacement of [3H]2-[p-(2-carboxyethyl)phenylethylamino]-5-N-ethylcarboxamidoadenosine from human A2A adenosine receptor expressed in HEK293 cell membranes after 60 mins by scintillation proximity assay.
Chain of Adenosine receptor A2a (P29274 whole entry): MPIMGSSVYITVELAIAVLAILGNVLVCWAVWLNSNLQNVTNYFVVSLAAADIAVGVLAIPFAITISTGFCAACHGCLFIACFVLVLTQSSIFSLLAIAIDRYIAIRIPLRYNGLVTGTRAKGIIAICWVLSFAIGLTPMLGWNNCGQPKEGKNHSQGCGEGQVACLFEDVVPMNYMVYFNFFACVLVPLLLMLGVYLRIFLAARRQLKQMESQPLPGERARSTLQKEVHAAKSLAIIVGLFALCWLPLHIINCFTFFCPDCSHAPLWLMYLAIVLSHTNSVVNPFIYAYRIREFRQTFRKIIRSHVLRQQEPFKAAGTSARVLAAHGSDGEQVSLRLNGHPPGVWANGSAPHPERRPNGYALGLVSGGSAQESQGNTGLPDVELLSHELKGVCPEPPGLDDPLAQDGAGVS
For data set [6], the target named is 5-hydroxytryptamine receptor 7 (Homo sapiens, UniProt P34969). In words: Inhibition of 5HT7R (unknown origin).
Chain of 5-hydroxytryptamine receptor 7 (P34969 whole entry): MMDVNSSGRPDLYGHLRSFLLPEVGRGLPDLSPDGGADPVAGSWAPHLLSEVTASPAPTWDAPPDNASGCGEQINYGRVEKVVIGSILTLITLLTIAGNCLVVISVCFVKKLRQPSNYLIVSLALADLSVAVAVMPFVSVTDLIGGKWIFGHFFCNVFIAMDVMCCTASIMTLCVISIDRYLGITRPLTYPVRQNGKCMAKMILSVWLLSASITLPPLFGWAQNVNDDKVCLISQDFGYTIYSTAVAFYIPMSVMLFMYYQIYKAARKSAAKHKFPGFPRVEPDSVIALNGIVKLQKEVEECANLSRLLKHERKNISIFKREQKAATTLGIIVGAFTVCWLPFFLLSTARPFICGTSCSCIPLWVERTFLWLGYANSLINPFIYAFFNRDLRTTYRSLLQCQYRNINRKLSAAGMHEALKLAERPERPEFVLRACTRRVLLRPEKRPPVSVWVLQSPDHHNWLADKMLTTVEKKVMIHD
Data set [7] addresses T4, Adenosine receptor A3 (Mus musculus, UniProt Q61618).
T4 sequence (Q61618 whole entry): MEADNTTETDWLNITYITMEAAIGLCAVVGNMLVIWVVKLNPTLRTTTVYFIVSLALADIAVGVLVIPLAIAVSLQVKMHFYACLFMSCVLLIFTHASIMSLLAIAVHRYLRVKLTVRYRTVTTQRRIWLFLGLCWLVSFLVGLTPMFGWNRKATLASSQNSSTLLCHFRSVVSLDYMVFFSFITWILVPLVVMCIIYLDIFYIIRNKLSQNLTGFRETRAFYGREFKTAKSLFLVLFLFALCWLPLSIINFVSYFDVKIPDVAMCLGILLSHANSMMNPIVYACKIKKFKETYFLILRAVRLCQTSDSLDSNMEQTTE
In words: Displacement of [125I]N6-(4-amino-3-iodobenzyl)adenosine-5-N-methyluronamide from mouse A3A adenosine receptor expressed in CHO cell membranes after 60 mins by scintillation proximity assay.

In data set [8] the test system is Mus musculus. In words: Induction of hypothermia in A3AR knock out C57BL/6J mouse assessed as effect on body temperature at 3 mg/kg, ip measured at 60 mins post dose. The class given is functional, organism-based.
Data set [9] has as its system Mus musculus. In words: Induction of hypothermia in A1AR knock out C57BL/6J mouse assessed as effect on body temperature at 3 mg/kg, ip measured at 60 mins post dose. In kind it is functional, organism-based.
For data set [10], the target named is Sodium-dependent noradrenaline transporter (Homo sapiens, UniProt P23975). In words: Inhibition of NET (unknown origin).
Chain of Sodium-dependent noradrenaline transporter (P23975 whole entry): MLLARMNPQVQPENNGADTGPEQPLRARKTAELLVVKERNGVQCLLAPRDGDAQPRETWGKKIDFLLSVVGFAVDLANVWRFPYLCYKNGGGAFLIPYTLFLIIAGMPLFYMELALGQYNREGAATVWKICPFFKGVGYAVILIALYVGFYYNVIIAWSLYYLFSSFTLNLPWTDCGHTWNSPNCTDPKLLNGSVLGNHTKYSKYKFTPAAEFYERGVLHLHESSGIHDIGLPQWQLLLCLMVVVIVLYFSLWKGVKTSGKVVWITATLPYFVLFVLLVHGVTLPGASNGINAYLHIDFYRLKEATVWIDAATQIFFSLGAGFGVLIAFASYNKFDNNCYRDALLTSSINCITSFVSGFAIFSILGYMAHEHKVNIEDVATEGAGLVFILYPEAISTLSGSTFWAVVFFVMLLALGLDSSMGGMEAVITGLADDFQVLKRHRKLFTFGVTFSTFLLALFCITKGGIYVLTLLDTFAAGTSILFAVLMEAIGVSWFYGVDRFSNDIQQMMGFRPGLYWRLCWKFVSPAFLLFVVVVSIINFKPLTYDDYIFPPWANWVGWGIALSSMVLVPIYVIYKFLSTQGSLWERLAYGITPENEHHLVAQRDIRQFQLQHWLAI
Data set [11] is filed under the species Mus musculus. In words: Selectivity index, ratio of Ki for mouse A3A adenosine receptor to Ki for mouse A1A adenosine receptor expressed in CHO cell membranes after 60 mins by scintillation proximity assay. A general note: In a scintillation proximity assay essentially only radioactivity close to the scintillant gives light.
In data set [12] the target is T5, Adenosine receptor A1 (Mus musculus, UniProt Q60612).
T5 sequence (Q60612 whole entry): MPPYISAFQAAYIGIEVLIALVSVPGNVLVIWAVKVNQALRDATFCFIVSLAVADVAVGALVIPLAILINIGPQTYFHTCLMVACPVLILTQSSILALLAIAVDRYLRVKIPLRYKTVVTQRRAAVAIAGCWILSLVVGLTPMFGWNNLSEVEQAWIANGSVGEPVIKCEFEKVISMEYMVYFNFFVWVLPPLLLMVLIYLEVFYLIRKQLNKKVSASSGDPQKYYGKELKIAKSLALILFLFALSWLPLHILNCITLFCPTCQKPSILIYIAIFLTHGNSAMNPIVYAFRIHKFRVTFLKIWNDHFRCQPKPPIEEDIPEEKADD
In words: Displacement of [3H]N6-R-phenylisopropyladenosine from mouse A1A adenosine receptor expressed in CHO cell membranes after 60 mins by scintillation proximity assay.

The nature of data set [13]: Fraction unbound in mouse plasma at 10 uM. The class given is ADME, cell-free.
Data set [14] deals with Mus musculus. In words: Induction of hypothermia in A1AR/A3AR knock out C57BL/6J mouse assessed as effect on body temperature at 3 mg/kg, ip measured at 60 mins post dose. The class given is functional, organism-based.
Data set [15] deals with T6, Adenosine receptor A1 (Mus musculus) (UniProt Q60612).
T6 sequence (whole entry): T5 sequence (Q60612 whole entry)
In words: Agonist activity at mouse A1A adenosine receptor at 10 uM after 60 mins by [35S]GTPgammaS binding assay relative to (2S,3S,4R,5R)-5-(6-amino-9H-purin-9-yl)-N-ethyl-3,4-dihydroxytetrahydrofuran-2-carboxamide. In kind it is functional. (In general: GTPγS is a poorly hydrolysed GTP analogue; its binding reports G protein activation.)

Data set [16] addresses T7, Adenosine receptor A3 (Mus musculus) (UniProt Q61618).
T7 sequence (whole entry): T4 sequence (Q61618 whole entry)
In words: Agonist activity at mouse A3AR adenosine receptor at 10 uM after 60 mins by [35S]GTPgammaS binding assay relative to (2S,3S,4R,5R)-5-(6-amino-9H-purin-9-yl)-N-ethyl-3,4-dihydroxytetrahydrofuran-2-carboxamide. In kind it is functional.

Data set [17] concerns Mus musculus. In words: Induction of hypothermia in C57BL/6J mouse assessed as activity counts at 3 mg/kg, ip measured at 60 mins post dose (reference value: 15.5 +/- 5.5). The class given is functional.
The subject of data set [18] is Mus musculus. In words: Induction of hypothermia in C57BL/6J mouse assessed as body temperature at 3 mg/kg, ip measured at 60 mins post dose (reference value: 36.3 +/- 0.8 degC). In kind it is functional.
The target of data set [19] is Adenosine receptor A2a (Mus musculus) (UniProt Q60613). In words: Displacement of [3H]2-[p-(2-carboxyethyl)phenylethylamino]-5-N-ethylcarboxamidoadenosine from mouse A2A adenosine receptor expressed in HEK293 cell membranes at 10 uM after 60 mins by scintillation proximity assay relative to adenosine 5-N-ethyluronamide.
Chain of Adenosine receptor A2a (Mus musculus) (Q60613 whole entry): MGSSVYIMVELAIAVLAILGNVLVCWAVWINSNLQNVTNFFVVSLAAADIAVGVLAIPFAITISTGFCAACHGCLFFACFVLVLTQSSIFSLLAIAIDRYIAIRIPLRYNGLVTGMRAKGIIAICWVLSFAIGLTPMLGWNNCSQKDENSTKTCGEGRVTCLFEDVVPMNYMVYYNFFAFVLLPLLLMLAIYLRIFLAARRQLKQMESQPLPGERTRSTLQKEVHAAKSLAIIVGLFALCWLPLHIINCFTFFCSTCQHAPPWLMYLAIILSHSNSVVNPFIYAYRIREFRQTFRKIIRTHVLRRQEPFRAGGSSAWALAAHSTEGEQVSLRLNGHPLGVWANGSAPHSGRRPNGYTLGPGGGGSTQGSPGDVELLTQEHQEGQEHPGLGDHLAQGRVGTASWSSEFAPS
Data set [20] in a line: Fraction unbound in human plasma at 10 uM. The class given is ADME, cell-free.
Data set [21] is described as follows: Fraction unbound in rat plasma at 10 uM. In kind it is ADME, cell-free.
The target in data set [22] is 5-hydroxytryptamine receptor 2B (Homo sapiens, UniProt P41595). In words: Inhibition of 5HT2B (unknown origin).
Chain of 5-hydroxytryptamine receptor 2B (P41595 whole entry): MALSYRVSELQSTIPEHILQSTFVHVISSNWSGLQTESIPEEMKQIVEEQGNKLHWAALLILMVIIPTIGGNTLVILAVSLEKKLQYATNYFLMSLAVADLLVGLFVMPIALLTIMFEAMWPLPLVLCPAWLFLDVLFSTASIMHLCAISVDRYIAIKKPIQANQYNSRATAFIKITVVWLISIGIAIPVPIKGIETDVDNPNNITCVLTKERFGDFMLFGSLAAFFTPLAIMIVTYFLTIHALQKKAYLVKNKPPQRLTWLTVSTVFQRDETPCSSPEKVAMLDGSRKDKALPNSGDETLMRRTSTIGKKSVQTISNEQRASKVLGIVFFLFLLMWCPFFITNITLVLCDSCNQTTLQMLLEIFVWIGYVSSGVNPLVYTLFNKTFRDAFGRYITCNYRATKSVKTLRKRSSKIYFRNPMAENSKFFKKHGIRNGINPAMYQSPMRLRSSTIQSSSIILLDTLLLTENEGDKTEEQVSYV
For data set [23], the system named is Mus musculus. In words: Induction of hypothermia in C57BL/6J mouse assessed as body temperature at 1 mg/kg, ip measured at 60 mins post dose (reference value: 36.3 +/- 0.8 degC). In kind it is functional.

Chain of Sigma intracellular receptor 2 (Q5BJF2 whole entry): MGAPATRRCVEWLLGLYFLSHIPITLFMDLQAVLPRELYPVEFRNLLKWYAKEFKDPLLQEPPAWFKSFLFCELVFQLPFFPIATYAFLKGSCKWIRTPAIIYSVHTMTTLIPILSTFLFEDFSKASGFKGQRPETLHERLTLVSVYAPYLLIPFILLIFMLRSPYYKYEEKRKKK

As to `CCOC(=O)[C@@]12C[C@@H]1[C@@H](n1cnc3c(NC(C4CC4)C4CC4)nc(Cl)nc31)[C@H](O)[C@@H]2O`, in data set [1], the Ki stood at 54 nM.

In the case of `Nc1nc(Cl)nc2c1ncn2[C@H]1[C@H](O)[C@H](O)[C@]2(CCl)C[C@H]12`, the Ki at Adenosine receptor A3 [2] was 253 nM; in data set [3], 1970 nM; on Adenosine receptor A1 [4], 7.61 nM; in data set [5], 2550 nM; on Adenosine receptor A2a it was 1750 nM.

On to `O[C@@H]1[C@H](O)[C@@H](CCl)O[C@H]1n1cnc2c(N[C@H]3C[C@H]4CC[C@@H]3C4)ncnc21`, for which the Ki in data set [6] was 1240 nM; at Adenosine receptor A3 [2], 355 nM; in data set [3] it was 484 nM; in [5], 432 nM; on Adenosine receptor A2a, 2050 nM; on Adenosine receptor A3 [7], 1560 nM.

On to `OC[C@@]12C[C@@H]1[C@@H](n1cnc3c(N[C@H]4C[C@H]5CC[C@@H]4C5)nc(Cl)nc31)[C@H](O)[C@@H]2O`, for which the outcome in the data set on Mus musculus [8], in the data set with Mus musculus [9] and with Mus musculus [14] was inactive. Besides, the Ki on Adenosine receptor A3 [2] worked out at 288 nM; on Adenosine receptor A1 [4], 23.6 nM; in data set [10], 5740 nM; at Adenosine receptor A2a, 4260 nM; on Adenosine receptor A1 [12] it was 1.05 nM; at Adenosine receptor A3 [7], 574 nM. The same compound gave a Ki in data set [22] of 472 nM. For the same compound, the Ratio Ki in the data set filed under Mus musculus [11] turned out to be 547. The values for the Fu in data set [13], in data set [20] and in data set [21] were 7.68%, 9.75% and 6.59%, respectively. Also, the results for the Emax in data set [15] and in [16] were 104% and 62%, respectively. The Activity in the data set with Mus musculus [17] came out at 10. In addition, the T in the data set with Mus musculus [18] came to 33.4 °C. Further, the inhibition in [19] worked out at 15%.

Regarding `OC[C@H]1O[C@@H](n2cnc3c(NC4CCCC4)ncnc32)[C@H](O)[C@@H]1O` [N6-CYCLOPENTYLADENOSINE], the T in the data set with Mus musculus [23] was 32.4 °C.
